Measured values published in patent US20230331685A1, “HERBICIDAL COMPOUNDS AND METHODS OF USE THEREOF” (AG Plenus Ltd, priority 2020, published 2023).

Columns and labels:
Assay type in all cases: in vivo
Solanum nigrum = assay: LTP post-emergence greenhouse test; conditions: Dosage 2000 g/ha
Conyza canadensis = assay: LTP post-emergence greenhouse test; conditions: Dosage 2000 g/ha
Lolium perenne = assay: LTP post-emergence greenhouse test; conditions: Dosage 2000 g/ha
Abutilon theophrasti = assay: LTP post-emergence greenhouse test; conditions: Dosage 2000 g/ha
Setaria viridis = assay: LTP post-emergence greenhouse test; conditions: Dosage 2000 g/ha
Ambrosia artemisiifolia = assay: LTP post-emergence greenhouse test; conditions: Dosage 2000 g/ha
Amaranthus palmeri = assay: LTP post-emergence greenhouse test; conditions: Dosage 2000 g/ha
Echinochloa crus-galli = assay: LTP post-emergence greenhouse test; conditions: Dosage 2000 g/ha
Echinochloa colon = assay: LTP post-emergence greenhouse test; conditions: Dosage 2000 g/ha
Chenopodium album = assay: LTP post-emergence greenhouse test; conditions: Dosage 2000 g/ha
Lolium multiflorum = assay: LTP post-emergence greenhouse test; conditions: Dosage 2000 g/ha
Amaranthus tuberculatus = assay: LTP post-emergence greenhouse test; conditions: Dosage 2000 g/ha
Protocol: A basic panel of eight weed species (Table 3) sowed in 4×4×7 cm plastic pots containing a garden mix (klasmann). Each specie was sowed in a separate pot. In each pot, 10-15 seeds were sowed according to the specie viability. Timing of application determined at a 1-2 true leaf stage. The plants grew for 30 days in a controlled greenhouse (26±2° C. day, 20±2° C. night). Hood irrigation (tap water+Shefer 5:3:8 8 mM) was given at a 50% water content by weight. Two days before application, the tested plants thinned down to three plants per pot. Compounds were soluble in water (DDW), and commercial herbicide control was soluble in formulation B (Table 4). Before application, 1% (v/v) crop oil and 0.02% (v/v) surfactant (Tergitol™ 15-S-7) were added to the solution. […] Plants were evaluated at 3 time points (4, 8, 12 days after application (DAA)). At each time point, visual phenotyping was recorded using a scale of 0-6 (0: no visible effect, 6: maximum effect). […]
Post-emergence advanced wide panel experiment included 24 weed species (Table 5). […] Visual phenotyping was recorded at 4, 11, 17 and 20 DAA using a scale of 0-6 (0: no visible effect, 6: maximum effect). […] Statistical analysis for visual phenotyping determined by a median value of ≥3.5 and Fisher test (pval≤0.05). Statistical analysis for dry weight determined by % inhibition ≥50 and T test (pval≤0.05), as well as Wilcox test (pval≤0.05).

Arabidopsis thaliana = assay: HTPS post-emergence application on miniature dicot model plant; conditions: Arabidopsis thaliana, post-emergence, green area (RGB), read-out: Max Inhibition (%)
Protocol: (§1) The plates were placed in a controlled greenhouse in a random order inside a bath which allows flooding irrigation with tap water supplemented with a fertilizer. Applied compounds were dissolved into a final solution of 50% acetone, 49.9% DDW, 0.1% tween-20. A 96 well plate was used as a stock plate for preparing application solutions for 8 repeats. Each row contained different concentrations per chemical. Maximal concentration for application was 1.5 Kg/Ha and dilution factor is 2.5. Chemical application was performed one day after thinning out in a chemical hood. […] applied on first two true leaves in each well using 12 channel pipettes. Data collection: RGB (red, green, blue) data for green area per well was documented using camera. Data is collected at a few time points during the experiment: one day after thinning and before chemical application, two-, six- or nine-days post application. During the last two documentations, visual phenotyping was performed. Data analysis: Given RGB results and visual phenotype scores, a student t-test conducted to compare between treatment and control performance for continuous data (RGB) and Fisher exact test to analyze the non-continuous data (phenotypic scores). Dose-Response curves are generated for each treatment to infer ED50 and max. inhibition parameters, using treatment's log concentration range as the […] variable and normalized green area. Plate imaging performed at 11 and 18 DAA. RGB data for green area per well was documented and used to extract % inhibition. Dose-Response curves were built for each treatment to infer EC50, EC75 and EC90 parameters, using treatment's log concentration range as the independent variable and normalized green area as the dependent variable. Treatments were compared to controls performance given RGB results and using student's t-test (p-val≤0.05). Compounds 104-154 were applied in either or both pre- and post-emergence mode to either or both monocot and dicot model plants, following the methods described above. The compounds were applied as a gradient of concentrations as listed above, from which the ED50 was calculated.

Matricaria chamomilla = assay: LTP post-emergence greenhouse test; conditions: Dosage 2000 g/ha
Digitaria sanguinalis = assay: LTP post-emergence greenhouse test; conditions: Dosage 2000 g/ha
Eragrostis teff = assay: HTPS pre-emergence application on monocot model plant
Protocol: as §1, with “area. […]” for “area.”

Alopecurus myosuroides = assay: LTP post-emergence greenhouse test; conditions: Dosage 2000 g/ha
Stellaria media = assay: LTP post-emergence greenhouse test; conditions: Dosage 2000 g/ha
Poa annua = assay: LTP post-emergence greenhouse test; conditions: Dosage 2000 g/ha
Galium aparine = assay: LTP post-emergence greenhouse test; conditions: Dosage 2000 g/ha
Phalaris minor = assay: LTP post-emergence greenhouse test; conditions: Dosage 2000 g/ha
[1] = tested on: monocot and eudicot weeds species; assay: In-planta LTP weed panel, overall assessment; conditions: applied post-emergence; both monocot and dicot species

SMILES: NC1CCCC(CCCC(=O)O)C1 (centres unmarked) [Compound 145]
- Herbicidal activity (In-planta), LTP-Post emergence, Solanum nigrum (Solanum nigrum): 40-60
- Herbicidal activity (In-planta), LTP-Post emergence, Conyza canadensis (Conyza canadensis): 40-60
- Herbicidal activity (In-planta), LTP-Post emergence, Lolium perenne (Lolium perenne): 40-60
- Herbicidal activity (In-planta), LTP-Post emergence, Abutilon theophrasti (Abutilon theophrasti): 20-40
- Herbicidal activity (In-planta), LTP-Post emergence, Setaria viridis (Setaria viridis): 60
- Herbicidal activity (In-planta), LTP-Post emergence, Ambrosia artemisiifolia (Ambrosia artemisiifolia): 20-40
- Herbicidal activity (In-planta), LTP-Post emergence, Amaranthus palmeri (Amaranthus palmeri): 20-40
- Herbicidal activity (In-planta), LTP-Post emergence, Echinochloa crus-galli (Echinochloa crus-galli): 60-80
- Herbicidal activity (In-planta), LTP-Post emergence, Echinochloa colon (Echinochloa colon): 20-40
- Herbicidal activity (In-planta), LTP-Post emergence, Chenopodium album (Chenopodium album): 40-60
- Herbicidal activity (In-planta), LTP-Post emergence, Lolium multiflorum (Lolium multiflorum): 20-40
- Herbicidal activity (In-planta), LTP-Post emergence, Amaranthus tuberculatus (Amaranthus tuberculatus): 40-60
- Emax (Arabidopsis thaliana): 100%
- Herbicidal activity (In-planta), LTP-Post emergence, Matricaria chamomilla (Matricaria chamomilla): 0
- Herbicidal activity (In-planta), LTP-Post emergence, Digitaria sanguinalis (Digitaria sanguinalis): 60-80
- ED50 (g/ha) (Eragrostis teff; dose-response of normalized green area): 16.8 g/ha
- Max Inhibition (%) (Eragrostis teff; green area (RGB)): 100%
- Herbicidal activity (In-planta), LTP-Post emergence, Alopecurus myosuroides (Alopecurus myosuroides): 60-80
- Herbicidal activity (In-planta), LTP-Post emergence, Stellaria media (Stellaria media): 20-40
- Herbicidal activity (In-planta), LTP-Post emergence, Poa annua (Poa annua): 20-40
- Herbicidal activity (In-planta), LTP-Post emergence, Galium aparine (Galium aparine): 40-60
- Herbicidal activity (In-planta), LTP-Post emergence, Phalaris minor (Phalaris minor): 0
- activity (in words) [1]: good to moderate activity
